Test results taken from patent US7579356B2, “Thia-tetraazaacenaphthylene kinase inhibitors” (Janssen Pharmaceutica NV, priority 2005, dated 2009).

Experiments:
[1] = biological target: T1, EGFR (Homo sapiens, UniProt P00533); experiment: EGFR Kinase Assay; assay type: biochemical; details: for IC50: GST-EGFR, ATP 5 μM; for inhibition at 2 µM: test concentration of 2 μM, compounds without an IC50, read-out: EGFR inhibition in percent
T1 construct: The intracellular portion of EGFR started at nucleotide 2189 (corresponding to amino acid 667) and ended at the termination codon; made in house; host or cells: Sf9 insect cells (baculovirus)
T1 sequence (P00533 669-1210 limits assumed): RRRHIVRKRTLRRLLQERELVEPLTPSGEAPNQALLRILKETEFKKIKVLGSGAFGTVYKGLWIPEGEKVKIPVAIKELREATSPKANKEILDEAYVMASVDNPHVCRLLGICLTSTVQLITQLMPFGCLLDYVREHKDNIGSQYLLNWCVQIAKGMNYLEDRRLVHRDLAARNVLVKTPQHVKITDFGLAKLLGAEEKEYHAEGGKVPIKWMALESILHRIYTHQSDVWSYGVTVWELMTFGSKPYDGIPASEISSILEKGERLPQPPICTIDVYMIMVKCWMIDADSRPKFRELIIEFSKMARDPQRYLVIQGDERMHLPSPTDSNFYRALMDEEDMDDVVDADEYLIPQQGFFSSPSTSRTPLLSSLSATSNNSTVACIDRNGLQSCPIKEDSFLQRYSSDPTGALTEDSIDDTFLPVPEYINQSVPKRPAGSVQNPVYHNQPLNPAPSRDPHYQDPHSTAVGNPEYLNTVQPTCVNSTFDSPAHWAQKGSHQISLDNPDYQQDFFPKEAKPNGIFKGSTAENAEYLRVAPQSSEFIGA
Method in brief: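 Potency came from triplicate 16-point half-log titrations starting at 200 uM, with IC50 fitted from % inhibition against log concentration, or % inhibition at 2 μM otherwise. Reaction: Sf9-made GST–EGFR cytoplasmic region (aa 667 onward), biotin-polyGluTyr, 5 μM ATP with 33P tracer, pH 8.0 Tris/Mg/vanadate/DTT, 30 °C for 1 h; captured on streptavidin Flashplates and counted.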

[2] = biological target: T2, c-Src kinase (human) (Homo sapiens, UniProt P12931); experiment: c-Src Kinase Assay; assay type: biochemical; details: for IC50: read-out: c-Src IC50 (in parentheses); for inhibition at 2 µM / c-Src % Inhibition: test concentration of 2 μM, multiple values are separate assay results; for c-Src % Inhibition: 2 µM
T2 construct: purchased Upstate Biotechnology, Lake Placid, N.Y
T2 sequence (P12931 whole entry): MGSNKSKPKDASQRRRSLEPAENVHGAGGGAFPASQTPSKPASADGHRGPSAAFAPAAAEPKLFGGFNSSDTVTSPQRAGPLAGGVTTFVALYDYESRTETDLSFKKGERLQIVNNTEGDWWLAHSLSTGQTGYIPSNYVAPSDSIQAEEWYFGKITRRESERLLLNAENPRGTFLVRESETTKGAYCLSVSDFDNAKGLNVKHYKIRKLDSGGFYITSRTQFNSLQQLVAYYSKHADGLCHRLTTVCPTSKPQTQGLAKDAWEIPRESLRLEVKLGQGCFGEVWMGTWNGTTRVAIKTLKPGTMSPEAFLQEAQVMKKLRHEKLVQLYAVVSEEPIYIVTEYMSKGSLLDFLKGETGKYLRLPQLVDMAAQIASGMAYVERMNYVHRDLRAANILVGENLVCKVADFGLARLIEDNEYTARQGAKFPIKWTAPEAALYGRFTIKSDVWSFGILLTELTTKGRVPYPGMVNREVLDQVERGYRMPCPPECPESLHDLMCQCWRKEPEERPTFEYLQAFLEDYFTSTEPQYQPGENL
Method in brief: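 Inhibition was read as 33P incorporation, counted on P30 filtermats, after a 40 min, 30° C reaction. Human c-Src acted on 100 μM Cdc2 peptide with 5 μM ATP (final), pH 7.0 MOPS/MgCl2. Values are percent inhibition at 2 μM compound, or IC50 where determined.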

Structure (SMILES)	IC50 [1] [nM]	IC50 [2] [nM]	inhibition at 2 µM [2] [%]	inhibition at 2 µM [1] [%]	c-Src % Inhibition [2] [%]
COc1cc(N2C(=O)Nc3c(C(=O)Nc4ccc(CN5CCCC5)cc4)sc4ncnc2c34)c(Cl)cc1Cl [Cpd 43, 5-(2,4-dichloro-5-methoxy-phenyl)-4-oxo-4,5-dihydro-3H-1-thia-3,5,6,8-tetraaza-acenaphthylene-2-carboxylic acid (4-pyrrolidin-1-ylmethyl-phenyl)-amide]	–	4150	53	47	–
COc1ccc(NC(=O)c2sc3ncnc4c3c2NC(=O)N4c2ccc(OCc3ccccn3)c(Cl)c2)cc1OC [Cpd 48, 5-[3-chloro-4-(pyridin-2-ylmethoxy)-phenyl]-4-oxo-4,5-dihydro-3H-1-thia-3,5,6,8-tetraaza-acenaphthylene-2-carboxylic acid (3,4-dimethoxy-phenyl)-amide]	61	–	7	–	–
COc1ccc(Cl)c(N2C(=O)Nc3c(C(=O)Nc4ccc(OC)c(OC)c4)sc4ncnc2c34)c1 [Cpd 49, 5-(2-chloro-5-methoxy-phenyl)-4-oxo-4,5-dihydro-3H-1-thia-3,5,6,8-tetraaza-acenaphthylene-2-carboxylic acid (3,4-dimethoxy-phenyl)-amide]	–	> 200000	23	25	–
COc1ccc(Cl)c(N2C(=O)Nc3c(C(=O)Nc4ccc(OCCN5CCOCC5)c(OC)c4)sc4ncnc2c34)c1 [Cpd 50, 5-(2-chloro-5-methoxy-phenyl)-4-oxo-4,5-dihydro-3H-1-thia-3,5,6,8-tetraaza-acenaphthylene-2-carboxylic acid [3-methoxy-4-(2-morpholin-4-yl-ethoxy)-phenyl]-amide]	–	8090	20	30	–
COc1ccc(Cl)c(N2C(=O)Nc3c(C(=O)Nc4ccc(CN5CCOCC5)cc4)sc4ncnc2c34)c1 [Cpd 51, 5-(2-chloro-5-methoxy-phenyl)-4-oxo-4,5-dihydro-3H-1-thia-3,5,6,8-tetraaza-acenaphthylene-2-carboxylic acid (4-morpholin-4-ylmethyl-phenyl)-amide]	–	6580	33	53	–
O=C(Nc1ccc(CN2CCOCC2)cc1)c1sc2ncnc3c2c1NC(=O)N3c1ccc(OCc2ccccn2)c(Cl)c1 [Cpd 52, 5-[3-chloro-4-(pyridin-2-ylmethoxy)-phenyl]-4-oxo-4,5-dihydro-3H-1-thia-3,5,6,8-tetraaza-acenaphthylene-2-carboxylic acid (4-morpholin-4-ylmethyl-phenyl)-amide]	51	–	1	–	–
COC(=O)c1sc2ncnc3c2c1NC(=O)N3c1c(Cl)ccc2c1OCO2 [Cpd 54, 5-(5-chloro-benzo[1,3]dioxol-4-yl)-4-oxo-4,5-dihydro-3H-1-thia-3,5,6,8-tetraaza-acenaphthylene-2-carboxylic acid methyl ester]	–	1490	42	25	–
COc1cc(N2C(=O)Nc3c(C(=O)Nc4ccc(CN5CCN(C)CC5)cc4)sc4ncnc2c34)c(Cl)cc1Cl [Cpd 60]	–	7940	38	29	–
O=C(Nc1ccc(CN2CCOCC2)cc1)c1sc2ncnc3c2c1NC(=O)N3c1c(Cl)ccc2c1OCO2 [Cpd 62, 5-(5-chloro-benzo[1,3]dioxol-4-yl)-4-oxo-4,5-dihydro-3H-1-thia-3,5,6,8-tetraaza-acenaphthylene-2-carboxylic acid (4-morpholin-4-ylmethyl-phenyl)-amide]	356	75	83	–	–
O=C(Nc1ccc(NCCCN2CCOCC2)nc1)c1sc2ncnc3c2c1NC(=O)N3c1cccc(Br)c1 [Cpd 64, 5-(3-bromo-phenyl)-4-oxo-4,5-dihydro-3H-1-thia-3,5,6,8-tetraaza-acenaphthylene-2-carboxylic acid [6-(3-morpholin-4-yl-propylamino)-pyridin-3-yl]-amide]	159	–	-14	–	–
O=C(Nc1ccc(CN2CCCCC2)cc1)c1sc2ncnc3c2c1NC(=O)N3c1ccc(OCc2ccccn2)c(Cl)c1 [Cpd 89, 5-[3-chloro-4-(pyridin-2-ylmethoxy)-phenyl]-4-oxo-4,5-dihydro-3H-1-thia-3,5,6,8-tetraaza-acenaphthylene-2-carboxylic acid (4-piperidin-1-ylmethyl-phenyl)-amide]	34	–	44	–	–
CN1CCN(Cc2ccc(NC(=O)c3sc4ncnc5c4c3NC(=O)N5c3ccc(OCc4ccccn4)c(Cl)c3)cc2)CC1 [Cpd 90, 5-[3-chloro-4-(pyridin-2-ylmethoxy)-phenyl]-4-oxo-4,5-dihydro-3H-1-thia-3,5,6,8-tetraaza-acenaphthylene-2-carboxylic acid [4-(4-methyl-piperazin-1-ylmethyl)-phenyl]-amide]	112	–	8	–	4
O=C(Nc1ccc(CN2CCCCC2)cc1)c1sc2ncnc3c2c1NC(=O)N3c1ccc(Sc2ccccc2)cc1 [Cpd 169, 4-oxo-5-(4-phenylsulfanyl-phenyl)-4,5-dihydro-3H-1-thia-3,5,6,8-tetraaza-acenaphthylene-2-carboxylic acid (4-piperidin-1-ylmethyl-phenyl)-amide]	29	–	–	–	–
O=C(Nc1ccc(CN2CCOCC2)cc1)c1sc2ncnc3c2c1NC(=O)N3c1ccc(Sc2ccccc2)cc1 [Cpd 178, 4-oxo-5-(4-phenylsulfanyl-phenyl)-4,5-dihydro-3H-1-thia-3,5,6,8-tetraaza-acenaphthylene-2-carboxylic acid (4-morpholin-4-ylmethyl-phenyl)-amide]	77	–	–	–	–

Other lines, results leading:

IC50 [1] [nM]	IC50 [2] [nM]	inhibition at 2 µM [2] [%]	inhibition at 2 µM [1] [%]	c-Src % Inhibition [2] [%]	Structure (SMILES)
184	> 20000	–	–	–	O=C(Nc1ccc(CN2CCOCC2)cc1)c1sc2ncnc3c2c1NC(=O)N3c1cccc(Br)c1 [Cpd 36, 5-(3-bromo-phenyl)-4-oxo-4,5-dihydro-3H-1-thia-3,5,6,8-tetraaza-acenaphthylene-2-carboxylic acid (4-morpholin-4-ylmethyl-phenyl)-amide]
920	–	7	–	–	O=C(O)c1sc2ncnc3c2c1NC(=O)N3c1ccc(OCc2ccccn2)c(Cl)c1 [Cpd 38, 5-[3-chloro-4-(pyridin-2-ylmethoxy)-phenyl]-4-oxo-4,5-dihydro-3H-1-thia-3,5,6,8-tetraaza-acenaphthylene-2-carboxylic acid]
164	> 200000	44	–	–	O=C(O)c1sc2ncnc3c2c1NC(=O)N3c1ccc2c(ccn2Cc2cccc(F)c2)c1 [Cpd 77, 5-[1-(3-fluoro-benzyl)-1H-indol-5-yl]-4-oxo-4,5-dihydro-3H-1-thia-3,5,6,8-tetraaza-acenaphthylene-2-carboxylic acid]
2220	> 200000	–	–	–	CCOC(=O)c1sc2ncnc3c2c1NC(=O)N3c1ccc2c(cnn2Cc2cccc(F)c2)c1 [Cpd 78, 5-[1-(3-fluoro-benzyl)-1H-indazol-5-yl]-4-oxo-4,5-dihydro-3H-1-thia-3,5,6,8-tetraaza-acenaphthylene-2-carboxylic acid ethyl ester]
302	> 200000	-17	–	–	O=C(O)c1sc2ncnc3c2c1NC(=O)N3c1ccc2c(cnn2Cc2cccc(F)c2)c1 [Cpd 79, 5-[1-(3-fluoro-benzyl)-1H-indazol-5-yl]-4-oxo-4,5-dihydro-3H-1-thia-3,5,6,8-tetraaza-acenaphthylene-2-carboxylic acid]
36	> 200000	–	–	–	O=C(Nc1ccc(CN2CCCCC2)cc1)c1sc2ncnc3c2c1NC(=O)N3c1ccc2c(cnn2Cc2cccc(F)c2)c1 [Cpd 80, 5-[1-(3-fluoro-benzyl)-1H-indazol-5-yl]-4-oxo-4,5-dihydro-3H-1-thia-3,5,6,8-tetraaza-acenaphthylene-2-carboxylic acid (4-piperidin-1-ylmethyl-phenyl)-amide]
113	> 200000	–	–	–	O=C(Nc1ccc(CN2CCCCC2)cc1)c1sc2ncnc3c2c1NC(=O)N3c1ccc2c(ccn2Cc2cccc(F)c2)c1 [Cpd 87, 5-[1-(3-fluoro-benzyl)-1H-indol-5-yl]-4-oxo-4,5-dihydro-3H-1-thia-3,5,6,8-tetraaza-acenaphthylene-2-carboxylic acid (4-piperidin-1-ylmethyl-phenyl)-amide]
168	–	-37	–	–	CC(C)(C)OC(=O)N1CCC(NC(=O)c2sc3ncnc4c3c2NC(=O)N4c2ccc3c(ccn3Cc3cccc(F)c3)c2)CC1 [Cpd 91, 4-({5-[1-(3-fluoro-benzyl)-1H-indol-5-yl]-4-oxo-4,5-dihydro-3H-1-thia-3,5,6,8-tetraaza-acenaphthylene-2-carbonyl}-amino)-piperidine-1-carboxylic acid tert-butyl ester]
45	431	65	–	45	CN1CCC(NC(=O)c2sc3ncnc4c3c2NC(=O)N4c2ccc3c(ccn3Cc3cccc(F)c3)c2)CC1 [Cpd 92, 5-[1-(3-fluoro-benzyl)-1H-indol-5-yl]-4-oxo-4,5-dihydro-3H-1-thia-3,5,6,8-tetraaza-acenaphthylene-2-carboxylic acid (1-methyl-piperidin-4-yl)-amide]
–	–	–	18	–	CCOC(=O)c1sc2ncnc3c2c1NC(=O)N3c1ccc(Oc2ccc(F)cc2)cc1 [Cpd 101, 5-[4-(4-fluoro-phenoxy)-phenyl]-4-oxo-4,5-dihydro-3H-1-thia-3,5,6,8-tetraaza-acenaphthylene-2-carboxylic acid ethyl ester]
